From patent US20240285630A1, “Methods and compositions for improving exercise performance” (MEZZION PHARMA CO., LTD., priority 2021, published 2024)
“And” between values parts separate entries of the source, which are not always exact repeats. Equal entries are not always repeated.

Legend:
[1] = test system: adolescents with Fontan physiology; details: cited from earlier work
Fontan population = assay: FUEL OLE (open-label extension) trial; format: in vivo, human; details: those treated with udenafil in the FUEL trial; 26 to 78 weeks
Excerpt: Like most extension studies, the FUEL open label extension trial was not a placebo-controlled trial, but was instead designed to establish a safety profile over a longer duration of drug exposure—and is an independent source of data from FUEL.

[2] = test system: adolescents with Fontan physiology; assay: FUEL Trial cardiopulmonary exercise test (CPET), cycle ergometer ramp protocol; format: in vivo, human; details: for Change in VE/VCO2 at VAT: 26 week - baseline; for Peak VO2 (% change), difference in change (treatment - placebo): natural log transformed data
Excerpt: The primary outcome was the change in oxygen consumption at peak exercise (max or peak VO2) from baseline to the 26-week visit. Secondary exercise outcomes included change in additional measures at maximal exertion, as well as change in measures of submaximal exercise at the ventilatory anaerobic threshold (VAT). The primary outcome for clinical secondary aims included change in myocardial performance index (MPI), an echocardiographically-derived measure of systolic and diastolic ventricular function, change in log-transformed reactive hyperemia index (InRHI), a PAT-derived measure of peripheral vascular function, and change in log-transformed serum BNP level. Safety was monitored through adverse event reports, which were collected according to a pre-specified protocol of study coordinator outreach, and through ad hoc patient and family communication with members of the study team at each site.
Baseline clinical testing completed before drug initiation included a blood draw to measure brain-type natriuretic peptide (BNP) level, a cardiopulmonary exercise test (CPET) using a standardized cycle ergometer ramp protocol, a standardized echocardiogram, and an assessment of peripheral vascular function using peripheral arterial tonometry (PAT) measured by finger cuff (EndoPAT; Itamar Medical, Israel). Participants who achieved maximal effort, defined as respiratory exchange ratio (RER)≥1.10 at peak exercise during CPET, were eligible for randomization and study drug initiation. […] End-of-study clinical testing included repeat measurement of serum BNP, CPET, echocardiogram, and PAT.
The primary analysis used the intention-to-treat population to evaluate the difference in the change in the primary outcome between treatment arms. This difference was assessed with an analysis of covariance (ANCOVA) with fixed factors for ventricular morphology (single left versus single right or mixed) and treatment group, with a continuous covariate of baseline max VO2. […] Secondary analyses included participants who successfully completed the protocol with measurable values at each of the secondary endpoints. Secondary outcomes of continuous data points were analyzed in the manner described for the primary outcome. In order to assess the generalizability of findings at the ventilatory anaerobic threshold, demographic and clinical characteristics were compared between participants without paired VO2 at VAT data and those comprising the remainder of the cohort.
The FUEL Trial was a Phase III clinical trial conducted at 30 centers. […] The primary outcome was the between group difference in change in oxygen consumption at peak exercise. Secondary outcomes included between group differences in changes in sub-maximal exercise at the ventilatory anaerobic threshold (VAT), the myocardial performance index (MPI), the natural log of the reactive hyperemia index (InRHI), and serum brain-type natriuretic peptide (BNP).
Baseline clinical testing completed before drug initiation included a blood draw to measure brain-type natriuretic peptide (BNP) level, a cardiopulmonary exercise test (CPET) using a standardized cycle ergometer ramp protocol (previously described in children and adolescents with Fontan physiology, Sleeper L A, Anderson P, Hsu D T, Mahony L, McCrindle B W, Roth S J, Saul J P, Williams R V, Geva T, Colan S D, Clark B J and Pediatric Heart Network I. Design of a large cross-sectional study to facilitate future clinical trials in children with the Fontan palliation. Am Heart J. 152(3):427-433 (September 2006), a standardized echocardiogram, and an assessment of peripheral vascular function using peripheral arterial tonometry (PAT) measured by finger cuff (EndoPAT; Itamar Medical, Israel). Participants who achieved maximal effort, defined as respiratory exchange ratio (RER)>1.10 at peak exercise during CPET, were eligible for randomization and study drug initiation. […]

[3] = baseline peak VO2 <80% predicted, N=251
[4] = baseline peak VO2 <80% predicted, N=301
[5] = baseline peak VO2 ≥80% predicted, N=66
[6] = excluding those with baseline peak VO2 ≥80% predicted, n=122
[7] = excluding those with baseline peak VO2 ≥80% predicted, n=150
[8] = post-hoc subgroup excluding baseline peak VO2 ≥80% of predicted
[9] = subgroup with baseline peak VO2 ≥80% of predicted, each treatment group

CCCOc1ccc(S(=O)(=O)NCCC2CCCN2C)cc1-c1nc2c(CCC)nn(C)c2c(=O)[nH]1 (stereo not drawn) [Udenafil, udenafil]
Average serum concentration ([1]; 87.5 mg twice daily compared with other tested regimens): highest average serum concentration
Dose limiting adverse events ([1]; 87.5 mg twice daily): not associated with dose limiting adverse events
Tolerability ([1]; all tested dosing regimens): demonstrated tolerability at all tested dosing regimens
Change from baseline in peak or max VO2 over FUEL and FUEL OLE (Fontan population): persistence of benefit
Increase in peak VO2 (VO2 max), percent ([2]; 87.5 mg twice daily, baseline to 26-week, ITT): 2.8%
Increase in peak VO2 (VO2 max), unindexed ([2]; 87.5 mg twice daily, baseline to 26-week, ITT n=200, p=0.071 vs placebo): 44 mL/min and 44 ± 245 mL/min
Anaerobic threshold oxygen consumption indexed to weight, 26-week ([2]; 26-week value, mean ± SD, n=185): 18.20 ± 4.51 (185) mL/kg/min
Peak exercise oxygen consumption indexed to weight, 26-week ([2]; 26-week value, mean ± SD, n=200): 27.61 ± 6.87 (200) mL/kg/min
Number needed to treat (NNT) for an increase in peak VO2 ([2]; ITT analysis): 10
Patients with an increase in peak VO2, number ([2]; ITT analysis without imputation of missing data): 86
Patients with an increase in peak VO2, percent ([2]; ITT analysis without imputation of missing data, p=0.075 vs placebo): 46%
Peak VO2 indexed to weight, change 26 week - baseline ([2]; all participants (ITT) n=200, p=0.092 vs placebo): −0.23 ± 4.06 (200) mL/kg/min and −0.23 mL/kg/min
VO2 at VAT indexed to weight, change 26 week - baseline ([2]; all participants n=170, p=0.012 vs placebo): −0.07 ± 3.0 (170) mL/kg/min and −0.07 mL/kg/min
% Predicted Peak VO2, 26 week - baseline ([2]; all participants n=189): −0.90
Peak VO2 (% change, ml/kg/min), 26 week - baseline ([2]; all participants n=200): −1.0%
Change in VE/VCO2 at VAT ([2]; all participants): −0.76
Change in VE/VCO2 at VAT ([2]; all participants, listed as udenafil): −0.8
Change in work rate at VAT ([2]; all participants, baseline to 26-week): 3.46 Watts
Work at VAT, difference in change (treatment - placebo) ([2]; baseline peak VO2 <80% predicted, N=243): 3.54 watts
VE/VCO2 at VAT, difference in change (treatment - placebo) [2, 3]: −0.66
VO2 at VAT, difference in change (treatment - placebo) [2, 3]: 0.77 mL/min/kg
Peak VO2, difference in change (treatment group - placebo group) [2, 4]: 1.12 mL/min/kg
Peak VO2 (% change), difference in change (treatment - placebo) [2, 4]: 5.0%
Peak VO2, difference in change (treatment group - placebo group) ([2]; baseline peak VO2 ≥80% predicted (Super Fontan), N=77): -0.89 mL/min/kg
Peak VO2, difference in change (treatment group - placebo group) ([2]; baseline peak VO2 ≥80% predicted (Super Fontan), N=77, listed as udenafil): no significant udenafil treatment effect
VE/VCO2 at VAT, difference in change (treatment - placebo) [2, 5]: −1.18
VO2 at VAT, difference in change (treatment - placebo) [2, 5]: 0.38 mL/min/kg
Work at VAT, difference in change (treatment - placebo) [2, 5]: 3.15 watts
Peak VO2 (% change), difference in change (treatment - placebo) ([2]; baseline peak VO2 ≥80% predicted, N=77): −2.39%
Decrease in VE/VCO2 at VAT, percent ([2]; baseline to 26-week): 2.1%
Improvement in work rate at VAT, percent ([2]; baseline to 26-week): 5.5% and 5.2%
Decrease in VE/VCO2 at VAT (improved ventilatory efficiency) ([2]; baseline to 26-week, given as size of decrease): 0.8
Peak exercise heart rate, change ([2]; baseline to 26-week, mean ± SD): −1.4 ± 11 bpm
Peak exercise minute ventilation, change ([2]; baseline to 26-week, mean ± SD): 1.2 ± 14 L/min
Peak exercise oxygen saturation, change ([2]; baseline to 26-week, mean ± SD): 0.4 ± 3.4%
Peak exercise respiratory rate, change ([2]; baseline to 26-week, mean ± SD): −1.1 ± 10 breaths/min
Peak exercise minute ventilation, change ([2]; baseline to 26-week, mean ± SD, listed as udenafil): no difference in the change in minute ventilation between groups
Work at VAT, 26 week - baseline ([2]; excluding those with baseline peak VO2 ≥80% predicted, n=119): 3.80 watts
VE/VCO2 at VAT, 26 week - baseline [2, 6]: −0.61
VO2 at VAT, 26 week - baseline [2, 6]: 0.11 mL/min/kg
% Predicted Peak VO2, 26 week - baseline [2, 7]: 0.43
Peak VO2 (% change, ml/kg/min), 26 week - baseline [2, 7]: 0.4%
Peak VO2, 26 week - baseline [2, 7]: 0.23 mL/min/kg
Number needed to treat (NNT) for an increase in peak VO2 [2, 8]: 8.2
Patients with an increase in peak VO2, number [2, 8]: 75
Patients with an increase in peak VO2, percent ([2]; post-hoc subgroup excluding baseline peak VO2 ≥80% of predicted, p=0.037 vs placebo): 50%
Patients with negative change in peak VO2, percent [2, 9]: 71 to 72%
Patients with positive change in peak VO2, percent [2, 9]: 28 to 29%
